Patent publication US11446315B2, “Enhancement of CD47 blockade therapy by proteasome inhibitors” (PF Argentum IP Holdings LLC, priority 2016, dated 2022)

B1: vSIRPαFc: high affinity CV1 variant of V region of human SIRPα fused with mutated IgG4, SEQ ID No. 12 (protein, listed as Homo sapiens)
chain: EEELQIIQPDKSVSVAAGESAILHCTITSLFPVGPIQWFRGAGPARVLIYNQRQGPFPRVTTVSETTKRENMDFSISISNITPADAGTYYCIKFRKGSPDTEFKSGAGTELSVRAKPSESKYGPPCPPCPAPPVAGPSVFLFPPKPKDTLMISRTPEVTCVVVDVSQEDPEVQFNWYVDGVEVHNAKTKPREEQFNSTYRVVSVLTVLHQDWLNGKEYKCKVSNKGLPSSIEKTISKAKGQPREPQVYTLPPSQEEMTKNQVSLTCLVKGFYPSDIAVEWESNGQPENNYKTTPPVLDSDGSFFLYSRLTVDKSRWQEGNVFSCSVMHEALHNHYTQKSLSLSLGK
B2: CD47 mAb: CD47 monoclonal antibody B6H12, variable regions SEQ ID Nos. 13 and 14 (antibody, V domains shown)
VH: EVQLVESGGDLVKPGGSLKLSCAASGFTFSGYGMSWVRQTPDKRLEWVATITSGGTYTYYPDSVKGRFTISRDNAKNTLYLQIDSLKSEDTAIYFCARSLAGNAMDYWGQGTSVTVSS
VL: DIVMTQSPATLSVTPGDRVSLSCRASQTISDYLHWYQQKSHESPRLLIKFASQSISGIPSRFSGSGSGSDFTLSINSVEPEDVGVYYCQNGHGFPRTFGGGTKLEIK
modifications: Murine

Experiments:
Type in all cases: cell-based, human
[1] = system: MM1.S multiple myeloma (MM) cell line; assay: Macrophage phagocytosis assay, MM1.S tumor cells pre-cultured with proteasome inhibitor (FIGS. 3A-3F); settings: MM1.S cultured 48 hours in bortezomib (10 nM), carfilzomib (10 nM) or ixazomib (25 nM); CD47 blockade drug at 100 nM, 2 hours co-culture; untreated vs proteasome inhibitor treated tumor cells, unpaired t-test
Procedure: (§1) FIGS. 3A-3F show the effect of proteasome inhibition on phagocytosis mediated by CD47 blockade, from an experiment supplemental to that represented in FIGS. 1A-1B and 2A-2B. The diffuse large cell lymphoma (DLBCL) cell line SU-DHL-6 and the multiple myeloma (MM) cell line MM1.S were cultured in the presence or absence of the proteasome inhibitors bortezomib (10 nM), carfilzomib (10 nM) or ixazomib (25 nM) for 48 hours. Cells were thereafter washed; macrophages and SIRPαFc proteins, CD47 monoclonal antibody (CD47 mAb) or Control Fc (at 100 nM) were added, and the mixture was then subjected to the phagocytosis assay as described infra.
(§2) To generate the results represented in FIGS. 3A-3F, macrophages were prepared from human peripheral blood mononuclear cells (PBMCs) obtained from healthy donors (BioreclamationIVT); informed consent was obtained from all donors. CD14+ monocytes were isolated by positive selection using the EasySep® human monocyte isolation kit (Stemcell Technologies). Monocytes were differentiated into macrophages by culturing the cells in X-VIVO 15 media (Lonza) supplemented with human m-CSF (PeproTech) for 10 days. Macrophages were primed with human IFNγ (PeproTech) one day prior to the phagocytosis assay. 48 hours prior to the phagocytosis assay, bortezomib (10 nM), carfilzomib (10 nM) or ixazomib (25 nM) were added to tumor cells. On the day of the phagocytosis assay, tumor cells (MM1.S or SU-DHL-6) were labeled with Violet Proliferation Dye 450 (BD Biosciences) and cultured with IFNγ-primed macrophages. Macrophages and tumor cells were co-cultured for 2 hours in the presence of 100 nM SIRPαFc (V region of human SIRPα variant 2 fused with IgG1 Fc), SIRPαFc (V region of human SIRPα variant 2 fused with IgG4 Fc), vSIRPαFc (high affinity CV1 variant of V region of human SIRPα fused with mutated IgG4) [SEQ ID No. 12], CD47 monoclonal antibody B6H12 [SEQ ID Nos. 13 and 14] or Control Fc (wild type human IgG4 with stabilized hinge). Cells were subsequently stained with a viability dye, APC-conjugated anti-human CD14 (61D3, eBioscience), and PE-conjugated anti-human CD11b (ICRF44, eBioscience). Macrophages were identified as live, single, CD14+CD11b+ cells. Doublets were excluded by SSC-W and SSC-H discrimination. Percent phagocytosis was assessed as the percent of macrophages that were VPD450+. Unpaired t-tests comparing the percentage of phagocytosis of untreated vs proteasome inhibitor treated tumor cells were performed (*P≤0.05, **P≤0.01, ***P≤0.001).

[2] = system: SU-DHL-6 diffuse large cell lymphoma (DLBCL) cell line; assay: Macrophage phagocytosis assay, SU-DHL-6 tumor cells pre-cultured with proteasome inhibitor (FIGS. 3A-3F); settings: SU-DHL-6 cultured 48 hours in bortezomib (10 nM), carfilzomib (10 nM) or ixazomib (25 nM); CD47 blockade drug at 100 nM, 2 hours co-culture; untreated vs proteasome inhibitor treated tumor cells, unpaired t-test
Procedure: as §1, §2

[3] = system: H929 multiple myeloma cell line; assay: Macrophage phagocytosis assay, H929 tumor cells pre-cultured with proteasome inhibitor (FIGS. 1B, 2B)
Procedure: (§3) FIGS. 1A and 1B show results when the multiple myeloma cell lines MM1s and H929 are cultured in the presence of the proteasome inhibitor bortezomib (at either 1, 5 or 10 nM) for 48 hours. The 0 result represents phagocytosis of cells that were not treated with bortezomib. Cells are then washed; macrophages and SIRPαFc (at 1, 5 or 100 nM) or Control Fc are added and the mixture is then subjected to the phagocytosis assay described herein.
(§4) FIGS. 2A and 2B show results from an experiment in which bortezomib is replaced by the proteasome inhibitor carfilzomib, which is then investigated as described in FIGS. 1A-1B. The 0 result represents phagocytosis of cells that were not treated with carfilzomib.
(§5) To generate the results represented in FIGS. 1A-1B and 2A-2B, heparinized whole blood was obtained from normal healthy human donors (Biological Specialty Corporation) and informed consent was obtained from all donors. Peripheral blood mononuclear cells (PBMCs) were isolated over Ficoll-Paque Plus density gradient (GE Healthcare) and CD14+ monocytes were isolated from PBMCs by positive selection using CD14 antibody-coated MicroBead separation (Miltenyi Biotec). […] Phagocytosis was assessed as % VPD450+ cells of live, single CD14+CD11b+macrophages by flow cytometry. […]

[4] = system: MM1s multiple myeloma cell line; assay: Macrophage phagocytosis assay, MM1s tumor cells pre-cultured with proteasome inhibitor (FIGS. 1A, 2A)
Procedure: as §3, §4, §5

| Molecule | Percent phagocytosis mediated by CD47 blockade (percent of macrophages VPD450+) [1] | Percent phagocytosis mediated by CD47 blockade (percent of macrophages VPD450+) [2] | SIRPαFc-mediated phagocytosis (% VPD450+ of live, single CD14+CD11b+ macrophages) ([3]; H929 cultured in bortezomib (1, 5 or 10 nM) for 48 hours, then macrophages and SIRPαFc (1, 5 or 100 nM), versus cells not treated with bortezomib) | SIRPαFc-mediated phagocytosis (% VPD450+ of live, single CD14+CD11b+ macrophages) ([4]; MM1s cultured in bortezomib (1, 5 or 10 nM) for 48 hours, then macrophages and SIRPαFc (1, 5 or 100 nM), versus cells not treated with bortezomib) | SIRPαFc-mediated phagocytosis (% VPD450+ of live, single CD14+CD11b+ macrophages) ([3]; H929 cultured in 10 nM carfilzomib for 48 hours, at all concentrations of SIRPαFc tested (1, 5 or 100 nM), versus cells not treated with carfilzomib) | SIRPαFc-mediated phagocytosis (% VPD450+ of live, single CD14+CD11b+ macrophages) ([4]; MM1s cultured in 10 nM carfilzomib for 48 hours, at all concentrations of SIRPαFc tested (1, 5 or 100 nM), versus cells not treated with carfilzomib) |
| --- | --- | --- | --- | --- | --- | --- |
| CC(C)C[C@H](NC(=O)[C@H](Cc1ccccc1)NC(=O)c1cnccn1)B(O)O [bortezomib] | significantly increased SIRPαFc-mediated phagocytosis or CD47 mAb-mediated phagocytosis | significantly increased SIRPαFc-mediated phagocytosis or CD47 mAb-mediated phagocytosis | increased SIRPαFc-mediated phagocytosis | increased SIRPαFc-mediated phagocytosis |  |  |
| CC(C)C[C@H](NC(=O)[C@H](CCc1ccccc1)NC(=O)CN1CCOCC1)C(=O)N[C@@H](Cc1ccccc1)C(=O)N[C@@H](CC(C)C)C(=O)[C@@]1(C)CO1 [carfilzomib] | significantly increased SIRPαFc-mediated phagocytosis or CD47 mAb-mediated phagocytosis | significantly increased SIRPαFc-mediated phagocytosis or CD47 mAb-mediated phagocytosis |  |  | significant increase in SIRPαFc-mediated phagocytosis | significant increase in SIRPαFc-mediated phagocytosis |
| CC(C)C[C@H](NC(=O)CNC(=O)c1cc(Cl)ccc1Cl)B(O)O [ixazomib] | significantly increased SIRPαFc-mediated phagocytosis or CD47 mAb-mediated phagocytosis | significantly increased SIRPαFc-mediated phagocytosis or CD47 mAb-mediated phagocytosis |  |  |  |  |
| SIRPαFc (V region of human SIRPα variant 2 fused with IgG4 Fc): V region of human SIRPα variant 2 fused with IgG4 Fc | significant increase in phagocytosis | significant increase in phagocytosis |  |  |  |  |
| B1 | significant increase in phagocytosis | significant increase in phagocytosis |  |  |  |  |
| B2 | significant increase in phagocytosis | significant increase in phagocytosis |  |  |  |  |
